Experimental data published in patent publication US20150361184A1, “METHODS OF MODULATING DLK STABILITY” (GENENTECH, INC., priority 2013, published 2015).
Peptide text beside a SMILES is read from it. * marks the point of attachment. Cbz = O=C(OCc1ccccc1)*

Experiments:
DLK [1] = assay: Western blot for DLK in unstressed embryonic DRG neurons cultured with NGF, treated for three hours; format: cell-based, mouse; settings: DRGs +NGF, 3 hours; OA 200 nM, MG132 30 μM
Method: (§1) Dorsal root ganglia were dissected from E12.5 to E13.5 mouse embryos, trypsinized (except in the case of explants), and cultured in F12 medium containing N3 supplement, 40 mM glucose, and 25 ng/mL NGF on chamber slides coated with poly-d-lysine and laminin (BioCoat, BD). The day after plating, 3 μM arabinofuranoside (AraC, Sigma) was added to the medium, removed two days later, and the medium was replaced with N3/F12/NGF without AraC. For NGF withdrawal experiments, after 4 to 5 days in vitro, medium was replaced with medium containing no NGF and 25 μg/mL anti-NGF antibody (Genentech) for between 1 and 3 hours.
DRG cultures were lysed by incubation on ice for 30 min. in buffer containing 50 mM Tris pH 7.5, 150 mM NaCl, 5 mM EDTA, and 0.1% Triton X-100. HEK 293T cells were lysed by incubation on ice for 30 min. in radioimmunoprecipitation assay (RIPA) buffer. Retina and nerve tissue samples were lysed in RIPA buffer using a TissueLyser (Qiagen) with a 3 mm tungsten carbide bead (Qiagen) for 6 min. Unless otherwise noted, all lysis solutions contained Complete protease inhibitor cocktail and PhosSTOP phosphatase inhibitor cocktail (Roche). Protein concentrations of 293T and retina lysates were determined by BCA assay (Pierce). Samples were loaded on NuPAGE 4-12% Bis-Tris gels (Invitrogen) and subjected to standard immunoblotting procedures. Except where noted, gels blotted for DLK were run in MOPS buffer (Invitrogen). Due to the large size of Phr1, samples blotted for Phr1 were run on 3-8% Tris-Acetate gels (Invitrogen). Blots were visualized with chemiluminescence and exposure to film. For relative protein expression and molecular weight quantifications, blots were also visualized on a Chemidoc (Bio-Rad). Quantifications were performed in ImageLab (Bio-Rad). Protein expression was standardized to a loading control (actin or tubulin). Molecular weight was standardized to Precision Plus Protein WesternC Standards (Bio-Rad).

murine DLK = assay: SILAC mass spectrometry of DLK phosphorylation sites in 293T cells expressing Flag-tagged DLK; format: cell-based, mouse; settings: WT DLK, okadaic acid 200 nM
Method: To identify functionally relevant phosphorylation sites on DLK, mass spectrometry in conjunction with stable isotope labeling by amino acids in cell culture (SILAC) was used. For these studies, 293T cells expressing FLAG-tagged DLK were cultured in SILAC media containing isotopically enriched (Heavy) versions of lysine (^13C6^15N2) and arginine (^13C6^15N4) or their unlabeled counterparts (Light). Four paired conditions (Light vs. Heavy) were established to dissect the effects of JNK and DLK activities on the overall abundance of DLK and the extent of DLK phosphorylation: 1) Wild-type (WT) DLK vs. DLK^S302A, 2) DLK^S302A vs. DLK^S302A co-expressed with a constitutively active JNK construct (Lei, K. et al. Molecular and cellular biology 22, 4929-4942 (2002)), 3) WT DLK vs. WT DLK with JNK inhibitor, and 4) WT DLK vs. WT DLK with okadaic acid (FIG. 5a).

DLK [2] = assay: JNK3 siRNA knockdown in JNK2 knockout DRGs with NGF withdrawal, blot for DLK; format: cell-based, mouse; settings: JNK2 KO embryonic DRGs, compared to control siRNA
Method: as §1
For siRNA experiments, dissociated DRGs were transfected using the Amaxa nucleofection system (Lonza). JNK3 siRNA (sense 5′-ACATCGTAGTCAAGTCTGATTT-3′ (SEQ ID NO:10), antisense 5′-ATCAGACTTGACTACGATGTTT (SEQ ID NO:11)) was synthesized at Genentech (Kim, M. J. et al. Neuron 56, 488-502 (2007)). Control siRNA was ON-TARGETplus Non-targeting siRNA #1 from Dharmacon.
DRG cultures were lysed by incubation on ice for 30 min. in buffer containing 50 mM Tris pH 7.5, 150 mM NaCl, 5 mM EDTA, and 0.1% Triton X-100. […] Protein concentrations of 293T and retina lysates were determined by BCA assay (Pierce). […] For relative protein expression and molecular weight quantifications, blots were also visualized on a Chemidoc (Bio-Rad). Quantifications were performed in ImageLab (Bio-Rad). […]

DLK [3] = assay: DLK expression in stable cell line with dox-inducible DLK construct treated with JNK inhibitors; format: cell-based; settings: inhibitors at 10 μM
Method: HEK 293T cells were lysed by incubation on ice for 30 min. in radioimmunoprecipitation assay (RIPA) buffer. […] Unless otherwise noted, all lysis solutions contained Complete protease inhibitor cocktail and PhosSTOP phosphatase inhibitor cocktail (Roche). Protein concentrations of 293T and retina lysates were determined by BCA assay (Pierce). Samples were loaded on NuPAGE 4-12% Bis-Tris gels (Invitrogen) and subjected to standard immunoblotting procedures. Except where noted, gels blotted for DLK were run in MOPS buffer (Invitrogen). […] Blots were visualized with chemiluminescence and exposure to film. For relative protein expression and molecular weight quantifications, blots were also visualized on a Chemidoc (Bio-Rad). Quantifications were performed in ImageLab (Bio-Rad). Protein expression was standardized to a loading control (actin or tubulin). Molecular weight was standardized to Precision Plus Protein WesternC Standards (Bio-Rad).
A stable cell line that expressed DLK in a doxicyclin-inducible fashion was used and cells were treated with two structurally distinct JNK inhibitors (FIG. 4c).

Compound | apparent molecular weight / phosphorylation of DLK (DLK [1]) | total levels of DLK protein (DLK [1]) | fold change in phosphorylation of T43, okadaic-acid-treated vs untreated cells expressing DLK (murine DLK) | increase in DLK quantity with NGF withdrawal (DLK [2]) | DLK expression (levels of DLK protein) (DLK [3])
CC(C)C[C@@H](C=O)NC(=O)[C@H](CC(C)C)NC(=O)[C@H](CC(C)C)NC(=O)OCc1ccccc1 [MG132] (Cbz-Leu-Leu-Leu-aldehyde) | without an increase in DLK phosphorylation | produced an increase in DLK levels | – | – | –
C=C1[C@@H](O)[C@@H]2O[C@]3(CC[C@H](/C=C/[C@@H](C)[C@@H]4CC(C)=C[C@@]5(O[C@H](C[C@@](C)(O)C(=O)O)CC[C@H]5O)O4)O3)CC[C@H]2O[C@@H]1[C@@H](O)C[C@H](C)[C@H]1O[C@@]2(CCCCO2)CC[C@H]1C [okadaic acid] | sufficient to increase both the apparent molecular weight and total levels of DLK | sufficient to increase both the apparent molecular weight and total levels of DLK | 7.78 fold | – | –
JNK3 siRNA: siRNA, sense 5′-ACATCGTAGTCAAGTCTGATTT-3′ (SEQ ID NO:10), antisense SEQ ID NO:11, synthesized at Genentech (sense ACATCGTAGTCAAGTCTGATTT; antisense ATCAGACTTGACTACGATGTTT; listed as DNA, chemistry not given here) | – | – | – | attenuated the increase in DLK | –
JNK Inhibitor VII (TAT-TI-JIP153-163) [JNK7] | – | – | – | – | reduces DLK expression
